In patent publication US9617602B2, “Methods and compositions for determining resistance to androgen receptor therapy” (Aragon Pharmaceuticals, Inc., priority 2012, dated 2017):

Key:
[1] = test system: Class 1 resistant cell lines; test: Endogenous gene transcriptional assay (real-time PCR of androgen responsive genes); assay type: cell-based, human
Description: (§1) Total RNA was isolated using the Aurum™ total RNA isolation kit (BIO-RAD, Hercules, Calif.). RNA (1 μg) was reverse transcribed using the iScript cDNA synthesis kit (BIO-RAD, Hercules, Calif.) to produce cDNA. Real-time PCR was performed using the Applied Biosystems 7900HT instrument and SYBR Green PCR Master Mix (Applied Biosystems, Foster City, Calif.). PCR reactions were performed in 6 μL according to the manufacturer's protocol and a thermocycle protocol of 95° C. for 10 minutes followed by 40 cycles of 95° C. for 15 seconds and 58° C. for 1 minute. Androgen responsive gene (PSA, SLUG, TMPRSS2, STEAP4, FKBP5, ORM1, NOV, FASN, NKX3.1, AMIGO2, BDNF, CAMK2N1, HPGD, NCAPD3, PLD1) expression was normalized to GAPDH expression and expressed relative to vehicle treatment of the parental cell line.

LNCaP/AR(cs) cells = test: as above; assay type: cell-based, human
Description: as §1
Gene expression was normalized to GAPDH as described above.

[2] = Table 4A, 1 nM R1881 or 30 μM compound, vehicle=1.00

Question: What does the source list for `CNC(=O)c1ccc(N2C(=S)N(c3ccc(C#N)c(C(F)(F)F)c3)C(=O)C2(C)C)cc1F` [Enzalutamide, enzalutamide]?
Answer: Transcriptional activity on endogenous androgen-responsive genes, Class 1 resistant cells [1]: weak transcriptional agonist; AMIGO2 expression, antagonist transcription (LNCaP/AR(cs) cells; +1 nM R1881, 0.3 μM): 0.49; BDNF expression, antagonist transcription (LNCaP/AR(cs) cells; +1 nM R1881, 0.3 μM): 0.61; CAM2KN1 expression, antagonist transcription (LNCaP/AR(cs) cells; +1 nM R1881, 0.3 μM): 0.04; FASN expression, antagonist transcription (LNCaP/AR(cs) cells; +1 nM R1881, 0.3 μM): 1.30; FKBP5 expression, antagonist transcription (LNCaP/AR(cs) cells; +1 nM R1881, 0.3 μM): 23.51; HPGD expression, antagonist transcription (LNCaP/AR(cs) cells; +1 nM R1881, 0.3 μM): 99.16; NCAPD3 expression, antagonist transcription (LNCaP/AR(cs) cells; +1 nM R1881, 0.3 μM): 23.74; NKX3.1 expression, antagonist transcription (LNCaP/AR(cs) cells; +1 nM R1881, 0.3 μM): 7.70; NOV expression, antagonist transcription (LNCaP/AR(cs) cells; +1 nM R1881, 0.3 μM): 0.11; PLD1 expression, antagonist transcription (LNCaP/AR(cs) cells; +1 nM R1881, 0.3 μM): 0.02; PSA expression, antagonist transcription (LNCaP/AR(cs) cells; +1 nM R1881, 0.3 μM): 22.76; SLUG expression, antagonist transcription (LNCaP/AR(cs) cells; +1 nM R1881, 0.3 μM): 50.08; STEAP4 expression, antagonist transcription (LNCaP/AR(cs) cells; +1 nM R1881, 0.3 μM): 585.81; TMPRSS2 expression, antagonist transcription (LNCaP/AR(cs) cells; +1 nM R1881, 0.3 μM): 19.88; AMIGO2 expression, antagonist transcription (LNCaP/AR(cs) cells; +1 nM R1881, 1 μM): 0.19; BDNF expression, antagonist transcription (LNCaP/AR(cs) cells; +1 nM R1881, 1 μM): 0.28; CAM2KN1 expression, antagonist transcription (LNCaP/AR(cs) cells; +1 nM R1881, 1 μM): 0.06; FASN expression, antagonist transcription (LNCaP/AR(cs) cells; +1 nM R1881, 1 μM): 0.42; FKBP5 expression, antagonist transcription (LNCaP/AR(cs) cells; +1 nM R1881, 1 μM): 5.64; HPGD expression, antagonist transcription (LNCaP/AR(cs) cells; +1 nM R1881, 1 μM): 16.30; NCAPD3 expression, antagonist transcription (LNCaP/AR(cs) cells; +1 nM R1881, 1 μM): 4.35; NKX3.1 expression, antagonist transcription (LNCaP/AR(cs) cells; +1 nM R1881, 1 μM): 3.77; NOV expression, antagonist transcription (LNCaP/AR(cs) cells; +1 nM R1881, 1 μM): 0.14; PLD1 expression, antagonist transcription (LNCaP/AR(cs) cells; +1 nM R1881, 1 μM): 0.02; PSA expression, antagonist transcription (LNCaP/AR(cs) cells; +1 nM R1881, 1 μM): 8.82; SLUG expression, antagonist transcription (LNCaP/AR(cs) cells; +1 nM R1881, 1 μM): 10.20; STEAP4 expression, antagonist transcription (LNCaP/AR(cs) cells; +1 nM R1881, 1 μM): 109.37; TMPRSS2 expression, antagonist transcription (LNCaP/AR(cs) cells; +1 nM R1881, 1 μM): 7.72; AMIGO2 expression, antagonist transcription (LNCaP/AR(cs) cells; +1 nM R1881, 3 μM): 0.48; BDNF expression, antagonist transcription (LNCaP/AR(cs) cells; +1 nM R1881, 3 μM): 0.63; CAM2KN1 expression, antagonist transcription (LNCaP/AR(cs) cells; +1 nM R1881, 3 μM): 0.27; FASN expression, antagonist transcription (LNCaP/AR(cs) cells; +1 nM R1881, 3 μM): 0.71; FKBP5 expression, antagonist transcription (LNCaP/AR(cs) cells; +1 nM R1881, 3 μM): 3.32; HPGD expression, antagonist transcription (LNCaP/AR(cs) cells; +1 nM R1881, 3 μM): 13.19; NCAPD3 expression, antagonist transcription (LNCaP/AR(cs) cells; +1 nM R1881, 3 μM): 3.14; NKX3.1 expression, antagonist transcription (LNCaP/AR(cs) cells; +1 nM R1881, 3 μM): 6.72; NOV expression, antagonist transcription (LNCaP/AR(cs) cells; +1 nM R1881, 3 μM): 0.61; ORM1 expression, antagonist transcription (LNCaP/AR(cs) cells; +1 nM R1881, 3 μM): 257.85; PLD1 expression, antagonist transcription (LNCaP/AR(cs) cells; +1 nM R1881, 3 μM): 0.13; PSA expression, antagonist transcription (LNCaP/AR(cs) cells; +1 nM R1881, 3 μM): 11.75; SLUG expression, antagonist transcription (LNCaP/AR(cs) cells; +1 nM R1881, 3 μM): 10.56; STEAP4 expression, antagonist transcription (LNCaP/AR(cs) cells; +1 nM R1881, 3 μM): 74.44; TMPRSS2 expression, antagonist transcription (LNCaP/AR(cs) cells; +1 nM R1881, 3 μM): 10.51; AMIGO2 expression, antagonist transcription (LNCaP/AR(cs) cells; +1 nM R1881, 10 μM): 0.78; BDNF expression, antagonist transcription (LNCaP/AR(cs) cells; +1 nM R1881, 10 μM): 0.99; CAM2KN1 expression, antagonist transcription (LNCaP/AR(cs) cells; +1 nM R1881, 10 μM): 0.50; FASN expression, antagonist transcription (LNCaP/AR(cs) cells; +1 nM R1881, 10 μM): 0.46; FKBP5 expression, antagonist transcription (LNCaP/AR(cs) cells; +1 nM R1881, 10 μM): 1.41; NKX3.1 expression, antagonist transcription (LNCaP/AR(cs) cells; +1 nM R1881, 10 μM): 4.70; NOV expression, antagonist transcription (LNCaP/AR(cs) cells; +1 nM R1881, 10 μM): 1.00; ORM1 expression, antagonist transcription (LNCaP/AR(cs) cells; +1 nM R1881, 10 μM): 43.91; PLD1 expression, antagonist transcription (LNCaP/AR(cs) cells; +1 nM R1881, 10 μM): 0.42; PSA expression, antagonist transcription (LNCaP/AR(cs) cells; +1 nM R1881, 10 μM): 6.59; SLUG expression, antagonist transcription (LNCaP/AR(cs) cells; +1 nM R1881, 10 μM): 5.26; STEAP4 expression, antagonist transcription (LNCaP/AR(cs) cells; +1 nM R1881, 10 μM): 13.61; TMPRSS2 expression, antagonist transcription (LNCaP/AR(cs) cells; +1 nM R1881, 10 μM): 3.58; AMIGO2 expression, antagonist transcription (LNCaP/AR(cs) cells; +1 nM R1881, 30 μM): 0.92; BDNF expression, antagonist transcription (LNCaP/AR(cs) cells; +1 nM R1881, 30 μM): 1.12; CAM2KN1 expression, antagonist transcription (LNCaP/AR(cs) cells; +1 nM R1881, 30 μM): 0.56; FASN expression, antagonist transcription (LNCaP/AR(cs) cells; +1 nM R1881, 30 μM): 0.59; FKBP5 expression, antagonist transcription (LNCaP/AR(cs) cells; +1 nM R1881, 30 μM): 1.50; HPGD expression, antagonist transcription (LNCaP/AR(cs) cells; +1 nM R1881, 30 μM): 4.25; NKX3.1 expression, antagonist transcription (LNCaP/AR(cs) cells; +1 nM R1881, 30 μM): 5.03; NOV expression, antagonist transcription (LNCaP/AR(cs) cells; +1 nM R1881, 30 μM): 0.92; ORM1 expression, antagonist transcription (LNCaP/AR(cs) cells; +1 nM R1881, 30 μM): 22.70; PLD1 expression, antagonist transcription (LNCaP/AR(cs) cells; +1 nM R1881, 30 μM): 0.54; PSA expression, antagonist transcription (LNCaP/AR(cs) cells; +1 nM R1881, 30 μM): 5.65; SLUG expression, antagonist transcription (LNCaP/AR(cs) cells; +1 nM R1881, 30 μM): 5.22; STEAP4 expression, antagonist transcription (LNCaP/AR(cs) cells; +1 nM R1881, 30 μM): 7.79; TMPRSS2 expression, antagonist transcription (LNCaP/AR(cs) cells; +1 nM R1881, 30 μM): 4.62; FASN gene expression (LNCaP/AR(cs) cells; [2]): 1.19; FKBP5 gene expression (LNCaP/AR(cs) cells; [2]): 1.71; HPGD gene expression (LNCaP/AR(cs) cells; [2]): 2.01; NKX3.1 gene expression (LNCaP/AR(cs) cells; [2]): 2.51
